# Laboratory results published in patent US5093475A (priority 1989, dated 1992).
# Structures can show the parent of a compound that is named as a salt. Marks after values point to notes of the source that are not given here.
# What was measured:
# [1] = Thorpe et al., Cancer Res. 47:5924-5931, 1987; cited from earlier work
# [2] = cited from earlier work
# [3] = Glutathione-induced TNB release from 791/iminothiolane/TNB (disulfide stability); format: physicochemical; conditions: for Reaction rate, TNB, k × 10^5 (initial rate of TNB release from 791/linker/TNB): ca. 10 μM protein-S-S-TNB, 200 μM glutathione, PBS, 0.5 mM EDTA, pH 7.25, 25° C.; for Increase in Disulfide Stability Relative to: 2IT / Increase in Disulfide Stability Relative to: SPDP: ratio of TNB release rate constants; for Increase in Disulfide Stability Relative to: SPDP: vs 791/SPDP/TNB
# Experimental: d. The initial rate of TNB release from 791/iminothiolane/TNB induced by glutathione. Samples contained ca. 10 μM of protein-S-S-TNB and 200 μM of glutathione in PBS containing 0.5 mM EDTA, pH 7.25, and were monitored at 412nm. FIG. 1 presents the results graphically.
# The relative increase in disulfide stability was also compared to 791/SPDP/TNB, and was determined as for 2IT.
# 791/SPDP/TNB was prepared by derivatizing 791 mAb with SPDP following conventional procedures and conditions, removing any byproducts by gel filtration, releasing the PDP group with 1 mM DTT, and then reacting the liberated sulfhydryl with DTNB. Following gel filtration, the rate of TNB release was measured as in Example 19d above.
# [4] = test system: 791 mAb; assay: Rate of reaction of the 2-iminothiolanes with 791 mAb, coupled with DTNB, 412nm; conditions: 0.5 mM 2-iminothiolane, 20 μM 791 mAb, 2.5 mM DTNB, pH 7.5; 25° C.
# Experimental: c. The rate of reaction of the 2-iminothiolanes (0.5 mM) with 791 mAb (20 μM), as monitored by coupling the reaction with 2.5 mM DTNB in 0.1 M NaPO4, 0.1 M NaCl, pH 7.5, and monitoring the change in absorbance at 412nm.
# [5] = Hydrolysis of the 2-iminothiolane rings in PBS (pH 7.2), monitored at 248nm; format: physicochemical; conditions: 25° C.
# Text: a. The rate of hydrolysis of the 2-iminothiolane rings in PBS (pH 7.2), monitored at 248nm.
# [6] = Rate of reaction of the 2-iminothiolanes with glycine, coupled with DTNB, 412nm; format: physicochemical; conditions: 160 mM glycine, 0.5 mM DTNB, PBS pH 7.2; 25° C.
# Experimental: b. The rate of reaction of the 2-iminothiolanes with 160 mM glycine in PBS (pH 7.2), monitored by coupling the reaction with 0.5 mM DTNB and following the change in absorbance at 412nm.
SMILES,"stability of disulfide bond in vivo, in words [1]","solubility in water, in words (background) [2]","Reaction rate, TNB, k × 10^5 (initial rate of TNB release from 791/linker/TNB) [3]",Increase in Disulfide Stability Relative to: 2IT [3],Increase in Disulfide Stability Relative to: SPDP [3],"Reaction rate, 791, k × 10^5 [4]","Reaction rate, Hydrolysis [5] [%/hr]","Reaction rate, Glycine, k × 10^3 [6]",rate constant for unsubstituted 2-iminothiolane ([3]; TNB release from 791/linker/TNB by glutathione)
"CC(SS(=O)(=O)O)c1ccc(C(=O)ON2C(=O)CCC2=O)cc1 (stereo not drawn) [SMBT, sodium S-4-succinimidyloxycarbonyl-α-methyl benzyl thiosulfate]",appear to have more stable disulfide linkages in vivo,low solubility in water,,,,,,,
"CC(C)(C)C1CCC(=N)S1.Cl (stereo not drawn) [t-butyl-2IT, 5-t-Butyl-2-iminothiolane hydrochloride]",,,16.4 s^-1 (k × 10^5),57.4,16.2,7.4 s^-1 (k × 10^5),6.1,4.4 s^-1 (k × 10^3),
"CC(SSc1ccccn1)c1ccc(C(=O)ON2C(=O)CCC2=O)cc1 (stereo not drawn) [SMPT, 4-succinimidyloxycarbonyl-α-methyl-α-(2-pyridyldithio)-toluene]",appear to have more stable disulfide linkages in vivo,low solubility in water,,,,,,,
"Cl.N=C1CCC(c2ccccc2)S1 (stereo not drawn) [phenyl-2IT, 5-Phenyl-2-iminothiolane hydrochloride]",,,45.8 s^-1 (k × 10^5),20.6,5.8,8.8 s^-1 (k × 10^5),1.5,5.2 s^-1 (k × 10^3),
"CC1CCC(=N)S1.Cl (stereo not drawn) [methyl-2IT, 5-Methyl-2-iminothiolane hydrochloride]",,,75.3 s^-1 (k × 10^5),12.5,3.5,4.0 s^-1 (k × 10^5),5.4,4.8 s^-1 (k × 10^3),
"CC1(C)CCC(=N)S1.Cl [dimethyl-2IT, 5,5-Dimethyl-2-iminothiolane hydrochloride]",,,0.13 s^-1 (k × 10^5),7246.0,2046.0,4.6 s^-1 (k × 10^5),6.9,3.5 s^-1 (k × 10^3),
"N=C1CC2CCCCC2S1 (stereo not drawn) [ring-2IT, hydrochloride]",,,82.1 s^-1 (k × 10^5),11.5,3.2,5.6 s^-1 (k × 10^5),13.4,3.4 s^-1 (k × 10^3),
"Cl.N=C1CCCS1 [Compound 2IT, 2-iminothiolane hydrochloride, reference compound]",unstable in vivo,,942.0 s^-1 (k × 10^5),1.0,0.3,5.0 s^-1 (k × 10^5),10.2,5.3 s^-1 (k × 10^3),9.42×10^-3
"Cl.N=C1CCC2(CCCCC2)S1 [spiro-2IT, 2-Imino-1-thiaspiro[4.5]decane hydrochloride]",,,0.11 s^-1 (k × 10^5),8564.0,2418.0,4.6 s^-1 (k × 10^5),5.6,3.0 s^-1 (k × 10^3),
"O=C(CCSSc1ccccn1)ON1C(=O)CCC1=O [SPDP, N-succinimidyl-3-(2-pyridyldithio)propionate, reference compound]",unstable in vivo,,,3.6,1.0,,,,
